Data: patent US11964978B2, “Modulators of STING (stimulator of interferon genes)” (PFIZER INC., priority 2021, dated 2024)

What was measured:
[1] = system: THP-1 Lucia ISG cells (IRF-inducible Lucia luciferase reporter); experiment: Interferon-β induction: THP-1 ISG reporter cell line; assay type: cell-based; conditions: THP1-Lucia ISG, 24 hours incubation, read-out: THP-1 Lucia ISG Cells IFN-β EC50
Experimental: Interferon-β Induction: THP-1 ISG Reporter Cell Line
THP-1 Lucia™ ISG cells (InvivoGen) express the secreted luciferase “Lucia” reporter gene under the control of an IRF-inducible composite promotor comprised of five interferon response elements. THP-1 Lucia™ ISG cells were grown in RPMI media plus 2 mM L-glutamine, 10% fetal bovine serum, and 0.5% Pen-Strep. Hygromycin B and Zeocin were present to maintain stable transfection. 10^4 cells were seeded in 96-well plates and incubated overnight 37° C., 5% CO2. 50 μL of serial diluted compounds in media (final 0.5% DMSO) was and incubated for an additional 24 hours. After incubation, the plates were centrifuged at 2000 rpm for 10 min. 50 μl of cell culture supernatant of each well was transferred to a white, opaque 96-well plate. One pouch of QUANTI-Luc™ (InvivoGen) powder was prepared in 25 mL of endotoxin-free water and 100 μL of prepared warm QUANTI-Luc solution were added to each well containing the supernatant. The luminescence signal was measured using a Perkin-Elmer Envision microplate reader. Data were normalized to “% effect” with a positive control STING agonist that was known to maximize the luciferase signal and the negative control DMSO.

[2] = system: phosphorylation of IRF3 in THP-1 cells (STING activation); experiment: Phosphorylation of IRF3: THP-1 cell ELISA; assay type: cell-based; conditions: Homo sapiens, 3 hours incubation, read-out: THP-1 CELL P-IRF3 EC50
Experimental: Phosphorylation of IRF3: THP-1 cell ELISA
STING activation results in recruitment of TBK1 and phosphorylation of IRF3 transcription factor before induction of type I interferons. THP-1 cells (InvivoGen) were grown in RPMI media plus 2 mM L-glutamine, 10% fetal bovine serum, and 0.5% Pen-Strep. 10^4 cells were seeded in 96-well plates and incubated overnight […]. Compounds serial diluted compounds in media (final 0.5% DMSO) were added to the cells and incubated for an additional 3 hours. After incubation, the plates were centrifuged at 2000 rpm for 5 min. The cells were then lysed in 100 μl RIPA buffer and vortexed for 30 minutes at room temperature. 25 μl of lysate was then transferred to clear polystyrene High Bind plates that had been previously coated with mouse anti-human IRF-3 capture antibody (BD Pharmigen), and allowed to incubate at 4° C. for 16 hours. The plates were then washed and incubated with rabbit anti-phospho-IRF3 detection antibody (Cell Signaling Technologies) for 1.5 hours at room temperature. Finally, an HRP-linked secondary antibody (Cell Signaling Technologies) was added for 30 min before the Glo Substrate Reagent (R&D Systems) was used generate the luminescent signal. The signal was measured using a Perkin-Elmer Envision microplate reader. Data were normalized to “% effect” with a positive control STING agonist that was known to maximize the phosphorylated IRF3 signal and the negative control was DMSO.

[3] = target: R232-STING (Homo sapiens (Human), UniProt Q86WV6, H232R); conditions: read-out: R232-STING SPA-IC50 Ki; STING residues 155-341, 100 nM 3H-cGAMP; KI from IC50 with Cheng-Prusoff equation
Sequence of R232-STING (Q86WV6 155-341 H232R): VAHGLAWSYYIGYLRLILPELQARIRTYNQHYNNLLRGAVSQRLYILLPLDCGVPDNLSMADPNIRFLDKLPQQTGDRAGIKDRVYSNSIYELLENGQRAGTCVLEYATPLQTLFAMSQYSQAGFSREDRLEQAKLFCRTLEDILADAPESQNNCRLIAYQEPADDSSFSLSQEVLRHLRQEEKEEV

SMILES	EC50 [1] [nM]	EC50 [2] [nM]	Ki [3] [nM]
CCn1cc(-c2c(O)c(C)nn2CC)nc1-c1nc(C(N)=O)cc2c1cnn2C [AIF13, 4-[1-ethyl-4-(1-ethyl-4-hydroxy-3-methyl-1H-pyrazol-5-yl)-1H-imidazol-2-yl]-1-methyl-1H-pyrazolo[4,3-c]pyridine-6-carboxamide]	160	250	2.9
Cc1cc(-c2cn(C)c(-c3nc(C(N)=O)cc4c3cnn4C)n2)n(CCCC#N)n1 [AIF15, 4-{4-[1-(3-cyanopropyl)-3-methyl-1H-pyrazol-5-yl]-1-methyl-1H-imidazol-2-yl}-1-methyl-1H-pyrazolo[4,3-c]pyridine-6-carboxamide]	1830	1350	46.6
Cc1cc(-c2cn(C)c(-c3nc(C(N)=O)cc4c3cnn4C)n2)n(C)n1 [AIH02, 4-[4-(1,3-dimethyl-1H-pyrazol-5-yl)-1-methyl-1H-imidazol-2-yl]-1-methyl-1H-pyrazolo[4,3-c]pyridine-6-carboxamide]	2560	4300	22.7
CCCn1nccc1-c1cn(C)c(-c2nc(C(N)=O)cc3c2cnn3C)n1 [AIH03, 1-methyl-4-[1-methyl-4-(1-propyl-1H-pyrazol-5-yl)-1H-imidazol-2-yl]-1H-pyrazolo[4,3-c]pyridine-6-carboxamide]	6260	6580	148
Cn1cc(-c2ccnn2C)nc1-c1nc(C(N)=O)cc2c1cnn2C [AIH04, 1-methyl-4-[1-methyl-4-(1-methyl-1H-pyrazol-5-yl)-1H-imidazol-2-yl]-1H-pyrazolo[4,3-c]pyridine-6-carboxamide]	> 10000	> 10000	151
CCn1nccc1-c1cn(C)c(-c2nc(C(N)=O)cc3c2cnn3C)n1 [AIH05, 4-[4-(1-ethyl-1H-pyrazol-5-yl)-1-methyl-1H-imidazol-2-yl]-1-methyl-1H-pyrazolo[4,3-c]pyridine-6-carboxamide]	> 10000	> 10000	93.3
CCn1nc(C)c(O)c1-c1cn(C)c(-c2nc(C(N)=O)cc3c2cnn3CC)n1 [AIN04, 1-ethyl-4-[4-(1-ethyl-4-hydroxy-3-methyl-1H-pyrazol-5-yl)-1-methyl-1H-imidazol-2-yl]-1H-pyrazolo[4,3-c]pyridine-6-carboxamide]	310	370	2.9
CCn1nc(C)cc1-c1cn(C)c(-c2nc(C(N)=O)cc3c2cnn3CC)n1 [Example AIC01, 1-ethyl-4-[4-(1-ethyl-3-methyl-1H-pyrazol-5-yl)-1-methyl-1H-imidazol-2-yl]-1H-pyrazolo[4,3-c]pyridine-6-carboxamide]	1170	1260	12.1
CCc1nc(C)cn1-c1cn(C)c(-c2nc(C(N)=O)cc3c2cnn3C)n1 [Example AID01, 4-(2-ethyl-1′,4-dimethyl-1′H-[1,4′-biimidazol]-2′-yl)-1-methyl-1H-pyrazolo[4,3-c]pyridine-6-carboxamide]	6310	6420	87.5
Cc1cc(-c2cn(C)c(-c3nc(C(N)=O)cc4c3cnn4C)n2)n(CCCO)n1 [Example AIE01, 4-{4-[1-(3-hydroxypropyl)-3-methyl-1H-pyrazol-5-yl]-1-methyl-1H-imidazol-2-yl}-1-methyl-1H-pyrazolo[4,3-c]pyridine-6-carboxamide]	220	200	3.6
CCn1nc(C)cc1-c1cn(C)c(-c2nc(C(N)=O)nc3c2cnn3C)n1 [Example AIG01, 4-[4-(1-ethyl-3-methyl-1H-pyrazol-5-yl)-1-methyl-1H-imidazol-2-yl]-1-methyl-1H-pyrazolo[3,4-d]pyrimidine-6-carboxamide]	> 10000	> 10000	81.8
CCn1ncc2c(-c3nc(-c4cc(C)nn4CCCO)cn3C)nc(C(N)=O)cc21 [Example AIJ01, 1-ethyl-4-{4-[1-(3-hydroxypropyl)-3-methyl-1H-pyrazol-5-yl]-1-methyl-1H-imidazol-2-yl}-1H-pyrazolo[4,3-c]pyridine-6-carboxamide]	450	400	10.2

Further lines, results first:

EC50 [1] [nM]	EC50 [2] [nM]	Ki [3] [nM]	SMILES
1320	1370	28.2	Cc1cc(-c2cn(C)c(-c3nc(C(N)=O)cc4c3cnn4C)n2)n(CCCC(F)F)n1 [AIF14, 4-{4-[1-(4,4-difluorobutyl)-3-methyl-1H-pyrazol-5-yl]-1-methyl-1H-imidazol-2-yl}-1-methyl-1H-pyrazolo[4,3-c]pyridine-6-carboxamide]
1200	990	20.9	COCCCn1nc(C)cc1-c1cn(C)c(-c2nc(C(N)=O)cc3c2cnn3C(F)F)n1 [AIN02, 1-(difluoromethyl)-4-{4-[1-(3-methoxypropyl)-3-methyl-1H-pyrazol-5-yl]-1-methyl-1H-imidazol-2-yl}-1H-pyrazolo[4,3-c]pyridine-6-carboxamide]
850	680	12.8	COCCCn1nc(C)cc1-c1cn(C)c(-c2nc(C(N)=O)cc3c2cnn3CF)n1 [AIN03, 1-(fluoromethyl)-4-{4-[1-(3-methoxypropyl)-3-methyl-1H-pyrazol-5-yl]-1-methyl-1H-imidazol-2-yl}-1H-pyrazolo[4,3-c]pyridine-6-carboxamide]
1240	1140	35.2	CCn1nc(C)cc1-c1cn(CCOC)c(-c2nc(C(N)=O)cc3c2cnn3C)n1 [AIP04, 4-[4-(1-ethyl-3-methyl-1H-pyrazol-5-yl)-1-(2-methoxyethyl)-1H-imidazol-2-yl]-1-methyl-1H-pyrazolo[4,3-c]pyridine-6-carboxamide]
820	670	10.7	CCn1nc(C)cc1-c1cn(C)c(-c2nc(C(N)=O)cc3c2cnn3C)n1 [Example AIA01, 4-[4-(1-ethyl-3-methyl-1H-pyrazol-5-yl)-1-methyl-1H-imidazol-2-yl]-1-methyl-1H-pyrazolo[4,3-c]pyridine-6-carboxamide]
540	500	9.8	CCCn1nc(C)cc1-c1cn(C)c(-c2nc(C(N)=O)cc3c2cnn3C)n1 [Example AIF01, 1-methyl-4-[1-methyl-4-(3-methyl-1-propyl-1H-pyrazol-5-yl)-1H-imidazol-2-yl]-1H-pyrazolo[4,3-c]pyridine-6-carboxamide]
430	330	15.2	CCn1cc(-c2cc(C)nn2CCCOC)nc1-c1nc(C(N)=O)cc2c1cnn2C [Example AIK01, 4-{1-ethyl-4-[1-(3-methoxypropyl)-3-methyl-1H-pyrazol-5-yl]-1H-imidazol-2-yl}-1-methyl-1H-pyrazolo[4,3-c]pyridine-6-carboxamide]
530	530	24.6	Cc1cc(-c2cn(C)c(-c3nc(C(N)=O)cc4c3cnn4C)n2)n(CCCOC(F)F)n1 [Example AIL01, 4-(4-{1-[3-(difluoromethoxy)propyl]-3-methyl-1H-pyrazol-5-yl}-1-methyl-1H-imidazol-2-yl)-1-methyl-1H-pyrazolo[4,3-c]pyridine-6-carboxamide]
800	730	4.6	COCCCn1nc(C)cc1-c1cn(C)c(-c2nc(C(N)=O)cc3c2cnn3C2CC2)n1 [Example AIN01, 1-cyclopropyl-4-{4-[1-(3-methoxypropyl)-3-methyl-1H-pyrazol-5-yl]-1-methyl-1H-imidazol-2-yl}-1H-pyrazolo[4,3-c]pyridine-6-carboxamide]
